Laboratory results taken from ChEMBL document CHEMBL2321867, “Synthesis and structure-activity relationships of 2-hydrazinyladenosine derivatives as A(2A) adenosine receptor ligands” (Bioorg Med Chem, 2013).

Experiments:
Adenosine receptor A1 [1] = target: T1, Adenosine receptor A1 (Rattus norvegicus, UniProt P25099); assay: Displacement of [3H]CCPA from adenosine A1 receptor in rat brain cortical membrane after 90 mins by liquid scintillation counting analysis; type: cell membranes
T1 sequence (P25099 whole entry): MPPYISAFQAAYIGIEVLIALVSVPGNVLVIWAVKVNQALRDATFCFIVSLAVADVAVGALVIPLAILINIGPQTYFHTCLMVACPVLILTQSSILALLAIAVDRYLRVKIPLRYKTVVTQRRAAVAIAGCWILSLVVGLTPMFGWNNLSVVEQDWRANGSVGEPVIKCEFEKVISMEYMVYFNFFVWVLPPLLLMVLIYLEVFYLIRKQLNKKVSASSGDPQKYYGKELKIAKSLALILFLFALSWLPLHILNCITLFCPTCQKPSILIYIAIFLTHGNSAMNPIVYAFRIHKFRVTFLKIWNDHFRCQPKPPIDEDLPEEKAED

[2] = target: T2, Adenosine receptor A3 (Homo sapiens) (UniProt P0DMS8); assay: Displacement of [3H]NECA from human recombinant adenosine A3 receptor expressed in CHO cells at 1 uM after 180 mins by liquid scintillation counting analysis; type: cell-based
T2 sequence (whole entry): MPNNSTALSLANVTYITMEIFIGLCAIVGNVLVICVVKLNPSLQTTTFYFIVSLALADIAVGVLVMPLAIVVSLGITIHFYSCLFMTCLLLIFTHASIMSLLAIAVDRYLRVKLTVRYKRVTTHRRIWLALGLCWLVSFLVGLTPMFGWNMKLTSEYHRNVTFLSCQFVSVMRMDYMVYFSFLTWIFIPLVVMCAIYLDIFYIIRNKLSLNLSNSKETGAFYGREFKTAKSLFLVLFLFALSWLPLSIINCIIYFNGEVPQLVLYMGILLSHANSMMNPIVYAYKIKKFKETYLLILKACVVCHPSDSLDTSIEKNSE

[3] = target: Adenosine receptor A2a (Rattus norvegicus) (UniProt P30543); assay: Displacement of [3H]CGS21680 from adenosine A2A receptor in rat brain striatal membrane at 1 uM after 60 mins by liquid scintillation counting analysis; type: cell membranes
Adenosine receptor A2a [4] = target: Adenosine receptor A2a (Rattus norvegicus, UniProt P30543); assay: Displacement of [3H]CGS21680 from adenosine A2A receptor in rat brain striatal membrane after 60 mins by liquid scintillation counting analysis; type: cell membranes
[5] = target: T3, Adenosine receptor A1 (Rattus norvegicus) (UniProt P25099); assay: Displacement of [3H]CCPA from adenosine A1 receptor in rat brain cortical membrane at 1 uM after 90 mins by liquid scintillation counting analysis; type: cell membranes
T3 sequence (whole entry): T1 sequence (P25099 whole entry)

Adenosine receptor A3 [6] = target: T4, Adenosine receptor A3 (Homo sapiens, UniProt P0DMS8); assay: Displacement of [3H]NECA from human recombinant adenosine A3 receptor expressed in CHO cells after 180 mins by liquid scintillation counting analysis; type: cell-based
T4 sequence (P0DMS8 whole entry): T2 sequence (whole entry)

Adenosine receptor A2a [7] = target: Adenosine receptor A2a (Homo sapiens, UniProt P29274); assay: Agonist activity at human recombinant adenosine A2A receptor expressed in CHO cells assessed as [3H]cAMP accumulation after 15 mins by liquid scintillation counting; type: functional, cell-based
Adenosine receptor A1 [8] = target: T5, Adenosine receptor A1 (Homo sapiens, UniProt P30542); assay: Displacement of [3H]CCPA from human recombinant adenosine A1 receptor expressed in CHO cells 90 mins by liquid scintillation counting analysis; type: cell-based
T5 sequence (P30542 whole entry): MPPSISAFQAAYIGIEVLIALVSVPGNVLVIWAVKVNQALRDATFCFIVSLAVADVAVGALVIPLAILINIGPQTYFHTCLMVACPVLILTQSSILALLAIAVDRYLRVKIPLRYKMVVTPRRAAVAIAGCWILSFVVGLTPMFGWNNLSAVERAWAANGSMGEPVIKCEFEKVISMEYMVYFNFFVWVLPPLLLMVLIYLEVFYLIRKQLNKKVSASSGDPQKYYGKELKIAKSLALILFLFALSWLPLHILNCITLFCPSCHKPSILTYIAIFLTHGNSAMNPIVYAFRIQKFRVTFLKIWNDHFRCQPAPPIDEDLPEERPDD

Adenosine receptor A3 [9] = target: T4, Adenosine receptor A3; assay: Displacement of [3H]NECA from human recombinant adenosine A3 receptor
Adenosine receptor A1 [10] = target: T5, Adenosine receptor A1
[11] = target: T6, Adenosine receptor A2b (Homo sapiens) (UniProt P29275); assay: Displacement of [3H]PSB-603 from human recombinant adenosine A2B receptor expressed in CHO cells at 10 uM after 75 mins by liquid scintillation counting analysis; type: cell-based
T6 sequence (whole entry): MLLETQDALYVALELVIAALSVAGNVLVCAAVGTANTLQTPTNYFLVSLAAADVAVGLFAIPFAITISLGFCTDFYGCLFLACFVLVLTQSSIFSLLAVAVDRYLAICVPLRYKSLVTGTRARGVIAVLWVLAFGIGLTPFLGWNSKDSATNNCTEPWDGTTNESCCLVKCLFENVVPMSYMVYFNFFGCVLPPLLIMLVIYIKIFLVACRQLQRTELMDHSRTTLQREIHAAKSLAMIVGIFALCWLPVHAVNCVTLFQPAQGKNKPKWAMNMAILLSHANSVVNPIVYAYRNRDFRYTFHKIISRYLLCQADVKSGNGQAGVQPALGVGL

Sequence of Adenosine receptor A2a (Rattus norvegicus, UniProt P30543) (P30543 whole entry): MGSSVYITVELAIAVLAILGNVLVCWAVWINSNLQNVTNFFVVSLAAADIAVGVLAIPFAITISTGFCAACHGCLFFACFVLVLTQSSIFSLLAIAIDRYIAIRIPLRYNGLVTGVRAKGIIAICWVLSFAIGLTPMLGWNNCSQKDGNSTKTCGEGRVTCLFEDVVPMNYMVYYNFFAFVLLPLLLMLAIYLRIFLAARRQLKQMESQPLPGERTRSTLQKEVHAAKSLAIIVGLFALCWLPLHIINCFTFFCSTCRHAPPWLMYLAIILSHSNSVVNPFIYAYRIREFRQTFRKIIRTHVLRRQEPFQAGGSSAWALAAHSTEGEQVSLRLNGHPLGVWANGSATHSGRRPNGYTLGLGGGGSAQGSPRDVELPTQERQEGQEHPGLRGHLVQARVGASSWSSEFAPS
Sequence of Adenosine receptor A2a (Rattus norvegicus) (P30543 whole entry): as above
Sequence of Adenosine receptor A2a (Homo sapiens, UniProt P29274) (P29274 whole entry): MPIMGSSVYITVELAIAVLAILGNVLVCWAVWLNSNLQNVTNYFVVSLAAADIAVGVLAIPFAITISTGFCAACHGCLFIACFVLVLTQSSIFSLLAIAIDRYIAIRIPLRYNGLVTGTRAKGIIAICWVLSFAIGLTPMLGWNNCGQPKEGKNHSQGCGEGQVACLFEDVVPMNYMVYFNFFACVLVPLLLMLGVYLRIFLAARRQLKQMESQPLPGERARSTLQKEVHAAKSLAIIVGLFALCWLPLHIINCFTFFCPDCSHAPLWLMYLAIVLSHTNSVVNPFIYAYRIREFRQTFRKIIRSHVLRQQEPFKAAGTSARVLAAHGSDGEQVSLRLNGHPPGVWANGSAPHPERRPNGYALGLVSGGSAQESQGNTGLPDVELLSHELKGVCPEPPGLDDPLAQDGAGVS

| Structure (SMILES) | inhibition [3] | Ki (Adenosine receptor A2a [4]) | other results |
| --- | --- | --- | --- |
| CN(NC(=S)Nc1ccccc1)c1nc(N)c2ncn([C@@H]3O[C@H](CO)[C@@H](O)[C@H]3O)c2n1 | 16% | > 1000 nM | Ki (Adenosine receptor A1 [1]): > 1000 nM; inhibition [2]: 36%; inhibition [5]: 1%; Ki (Adenosine receptor A3 [6]): > 1000 nM |
| Nc1nc(N/N=C/[C@@H](O)[C@H](O)[C@@H](O)[C@@H](O)CO)nc2c1ncn2[C@@H]1O[C@H](CO)[C@@H](O)[C@H]1O | 42% | > 1000 nM |  |
| CN(/N=C/[C@@H](O)[C@H](O)[C@@H](O)[C@@H](O)CO)c1nc(N)c2ncn([C@@H]3O[C@H](CO)[C@@H](O)[C@H]3O)c2n1 | 31% | > 1000 nM |  |
| CN(/N=C/[C@H](O)[C@@H](O)[C@@H](O)[C@H](O)CO)c1nc(N)c2ncn([C@@H]3O[C@H](CO)[C@@H](O)[C@H]3O)c2n1 | 25% | > 1000 nM |  |
| CN(/N=C(\CO)[C@H](O)[C@@H](O)[C@@H](O)CO)c1nc(N)c2ncn([C@@H]3O[C@H](CO)[C@@H](O)[C@H]3O)c2n1 | 25% | > 1000 nM |  |
| Nc1nc(N/N=C/[C@H](O)[C@H](O)[C@@H](O)[C@@H](O)CO)nc2c1ncn2[C@@H]1O[C@H](CO)[C@@H](O)[C@H]1O | 33% | > 1000 nM |  |
| Nc1nc(N/N=C/[C@@H](O)[C@H](O)[C@H](O)[C@@H](O)CO)nc2c1ncn2[C@@H]1O[C@H](CO)[C@@H](O)[C@H]1O |  | 329 nM | EC50 (Adenosine receptor A2a [7]): 1440 nM |
| Nc1nc(N/N=C/c2ccc(Cl)cc2O)nc2c1ncn2[C@@H]1O[C@H](CO)[C@@H](O)[C@H]1O |  | 91.7 nM |  |
| CN(/N=C/[C@@H](O)[C@@H](O)[C@@H](O)CO)c1nc(N)c2ncn([C@@H]3O[C@H](CO)[C@@H](O)[C@H]3O)c2n1 | 7% | > 1000 nM |  |
| Nc1nc(N/N=C(\CO)[C@H](O)[C@@H](O)[C@@H](O)CO)nc2c1ncn2[C@@H]1O[C@H](CO)[C@@H](O)[C@H]1O | 34% | > 1000 nM |  |
| Nc1nc(N/N=C/c2ccc(Cl)c(Cl)c2)nc2c1ncn2[C@@H]1O[C@H](CO)[C@@H](O)[C@H]1O |  | 24.4 nM | EC50 (Adenosine receptor A2a [7]): 1660 nM |
| Nc1nc(N/N=C/c2ccc(Cl)cc2)nc2c1ncn2[C@@H]1O[C@H](CO)[C@@H](O)[C@H]1O |  | 16.1 nM |  |
| CN(NC(=O)Nc1ccccc1)c1nc(N)c2ncn([C@@H]3O[C@H](CO)[C@@H](O)[C@H]3O)c2n1 | 11% | > 1000 nM |  |
| CN(/N=C/[C@H](O)[C@H](O)[C@@H](O)[C@@H](O)CO)c1nc(N)c2ncn([C@@H]3O[C@H](CO)[C@@H](O)[C@H]3O)c2n1 | 2% | > 1000 nM |  |
| Nc1nc(N/N=C/[C@@H](O)[C@@H](O)[C@@H](O)CO)nc2c1ncn2[C@@H]1O[C@H](CO)[C@@H](O)[C@H]1O | 33% | > 1000 nM |  |
| COc1ccc(/C=N/Nc2nc(N)c3ncn([C@@H]4O[C@H](CO)[C@@H](O)[C@H]4O)c3n2)cc1 |  | 12 nM | Ki (Adenosine receptor A1 [8]): 723 nM |
| Nc1nc(N/N=C/C2CCCCC2)nc2c1ncn2[C@@H]1O[C@H](CO)[C@@H](O)[C@H]1O [BINODENOSON] |  | 25.5 nM | Ki (Adenosine receptor A3 [9]): 903 nM; Ki (Adenosine receptor A1 [8]): 169 nM; Ki (Adenosine receptor A1 [1]): 70.8 nM; Ki (Adenosine receptor A1 [10]): 48000 nM; Ki (Adenosine receptor A3 [6]): 52.6 nM; inhibition [11]: 17% |
